One test relates to ThR mRNA. Put plainly: Northern blot of ThR mRNA level in neonatal rat ventricular myocytes under normal conditions or hypoxia. Format: cell-based.
The next test has as its system myocytes. Nature of the test: LDH activity released into the medium of normal and hypoxic myocytes. Format: cell-based, rat. To be noted: calphostin C 10 nM or 100 nM in the presence and absence of TRAP (10 μM). On the procedure: FIG. 4B. LDH levels were measured in the medium of normal (A,B,E,G) and hypoxic (C,D,F,H) myocytes. TRAP (10 μM) was added (for 48 h) to normal cells (B,E,G) or prior to subjecting the cells to hypoxia (D,F,H). Cells were treated with calphostin C at 10 nM (E,F) or 100 nM (G,H). LDH levels were determined at 340 nm.
Cell viability under hypoxia conditions was measured by lactate dehydrogenase (LDH) assay of the medium by using diagnostic kit according to the manufacturer's instructions (Sigma, St. Louis, Mo.). Released LDH is a stable enzymatic marker that correlates with cell viability. Total LDH activity was determined in culture medium plus LDH released from the cells after treatment with 0.5% Triton X-100. All results are expressed as mean±SEM of triplicate sample (I—Weiscner, M S et al., 1998. Induction of endothelial cell PAS domain protein-1 by hypoxia: characterization and comparison with hypoxia-inducible factor-1-alpha. Blood, 92(7);2260-8. II—Brooks et al., 1998. Modulation of VEGF production by pH and glucose in retinal muller cells. Curr. Eye Res., 17(9):875-882).

From US6461611B1, “Agents for the prevention of damages caused by stress conditions” (Hadasit Medical Research Services & Development Limited, priority 1998, dated 2002) come the findings set out here.

Method for ThR mRNA: RNA was prepared using TRI-Reagent (Molecular Research Center, Inc. Cincinnati) according to the manufacturer's instructions. […] For the detection of ThR a 250 nucleotide PCR product was used. The membrane was washed twice for 30 mins. at room temperature with 1×SSC containing 0.1% SDS and twice for 30 mins. at 55° C. with 0.1×SSC, containing 0.1% SDS. The blots were exposed for 2-4 days at −70° C. and the relative amounts of mRNA transcripts were analyzed by laser densitometry using an Ultrascan XL Enhanced Laser Densitometer and normalized relative to an internal β-actin controls.
Primary cultures of neonatal rat ventricular mycocytes were subjected to hypoxia conditions (0% oxygen, 20 torr), and the level of ThR transcripts were compared to the level of the receptor transcripts in cells under normal oxygen levels (21% oxygen). […] The 4.1 kb mRNA was detected following hybridization with full length ThR cDNA and the intensity of the bands was quantitated by densitometry and normalized to the actin transcript levels.
The level of ThR mRNA following hypoxia, in the presence of α-thrombin was also determined. For this, rat ventricular myocytes were subjected to serum free conditions and α-thrombin (5×10^−8M) was added for a period of 48 hours and the level of ThR was determined.
Therefore the effect of interruption of the signaling cascase on the protection effect was analyzed. For this, calphostin C, a protein kinase C (PKC) inhibitor was added during the activation of ThR with TRAP.

Take calphostin C: the “protection of ThR transcript level under hypoxia by TRAP” value with ThR mRNA (hypoxia, TRAP activated ThR in the presence of calphostin C (1 nM, 100 nM)) was “showed no longer the protection”. Besides, the “level of ThR mRNA” value in the test on ThR mRNA (normal conditions, calphostin C 200 nM) was “did not affect”. Besides, the “level of ThR transcripts” value in the test on ThR mRNA (normal conditions, calphostin C (1 nM and 100 nM) added together with TRAP (1 μM)) is given as “did not affect”. In addition, the “stressed hypoxic conditions as observed by the released LDH activity” value with myocytes is listed as “did not affect the stressed hypoxic conditions”.
